Experimental data published in patent US11518763B2 (SCOHIA PHARMA, INC., priority 2018, dated 2022).

Target: T1, binding between NRF2 and KEAP1 (biotinylated human KEAP1 protein (Kelch domain), TAMRA-labeled NRF2 peptide) (Homo sapiens, UniProt Q14145)
T1 construct: biotinylated human KEAP1 protein (Kelch domain); biotin (biotinylated)
Assay: Measurement of activity of inhibiting NRF2 binding (NRF2-KEAP1 TR-FRET)
Conditions: inhibition rate relative to control at 100 nM test compound; TR-FRET; 60 min at room temperature; read-out: NRF2 binding inhibitory activity (at 100 nM)
Protocol: Test Example 1: Measurement of Activity of Inhibiting NRF2 Binding
The inhibitory activity of test compounds against the binding between NRF2 and KEAP1 was measured by Time Resolved Fluorescence Resonance Energy Transfer (TR-FRET) method. Into a 384 well plate, 2 μL of a compound, 2 μL of 2 nM solution of biotinylated human KEAP1 protein (Kelch domain), 2 μL of 14 nM solution of TAMRA-labeled NRF2 peptide (TAMRA-Abu(4)-VWYTDIRMRDWM-OH), and 2 μL of 2 nM solution of Tb-labeled streptavidin, all solutions diluted with assay buffer (25 mM HEPES, pH7.5, 150 mM NaCl, 0.01% Tween-20), were added. For some wells, the KEAP1 protein was not added to define control wells. The plate was incubated at room temperature for 60 minutes, and time-resolved fluorescence was measured with a plate reader Envision (manufactured by PerkinElmer). The inhibitory activity for each compound at a compound concentration of 100 nM were calculated as a relative activity value by setting the fluorescence intensity of control wells to which the KEAP1 protein was not added as 100% inhibition, and the fluorescence intensity of wells to which no compound was added as 0%.
The measurement results according to the method described above (inhibition rate of signal value relative to control at 100 nM of test compound) are shown in Table 3.

T1 sequence (Q14145 321-609 limits assumed): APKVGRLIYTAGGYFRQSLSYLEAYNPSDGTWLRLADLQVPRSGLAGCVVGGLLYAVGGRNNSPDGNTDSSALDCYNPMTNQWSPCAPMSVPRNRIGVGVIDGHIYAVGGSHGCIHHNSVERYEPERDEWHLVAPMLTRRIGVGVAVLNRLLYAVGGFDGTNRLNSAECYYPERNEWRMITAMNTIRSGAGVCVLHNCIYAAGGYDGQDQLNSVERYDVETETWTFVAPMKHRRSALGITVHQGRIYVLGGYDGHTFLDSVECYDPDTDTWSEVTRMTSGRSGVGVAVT

inhibition at 0.1 µM [%] | Structure (SMILES)
100 | Cc1c2ccc3c1nnn3CCCCCc1ccc(cc1)C(=O)N1CCc3ccc(cc3C1)C2CC(=O)O (racemic) [Example 1, [32-Methyl-20-oxo-8,9,10,21-tetraazahexacyclo[19.5.3.2^16,19.1^3,7.0^6,10.0^24,28]dotriaconta-1(26),3(32),4,6,8,16,18,24,27,30-decaen-2-yl]acetic acid]
100 | O=C(O)CC1c2ccc3c(c2)CN(CC3)C(=O)c2ccc(cc2)CCCCCn2nnc3cc1ccc32 (racemic) [Example 2, [20-oxo-8,9,10,21-tetraazahexacyclo[19.5.3.2^16,19.1^3,7.0^6,10.0^24,28]dotriaconta-1(26),3(32),4,6,8,16,18,24,27,30-decaen-2-yl]acetic acid]
100 | Cc1c2ccc3c1nnn3CCCCCc1ccc(c3c1CC(C)(C)O3)C(=O)N1CCc3ccc(cc3C1)C2CC(=O)O (racemic) [Example 8, [6,6,33-Trimethyl-2-oxo-5-oxa-1,15,16,17-tetraazaheptacyclo[22.5.3.2^3,9.1^18,22.0^4,8.0^15,19.0^27,31]pentatriaconta-3,8,16,18(33),19,21,24,26,31,34-decaen-23-yl]acetic acid]
99 | Cc1c2ccc3c1nnn3CCCCc1ccc(cc1)C(=O)N1CCc3ccc(cc3C1)C2CC(=O)O (racemic) [Example 13, [31-Methyl-19-oxo-8,9,10,20-tetraazahexacyclo[18.5.3.2^15,18.1^3,7.0^6,10.0^23,27]hentriaconta-1(25),3(31),4,6,8,15,17,23,26,29-decaen-2-yl]acetic acid]
79 | Cc1c2ccc3c1nnn3CC/C=C\CCc1ccc(cc1)C(=O)N1CCc3ccc(cc3C1)C2CC(=O)O (racemic) [Example 14, [(13Z)-33-Methyl-21-oxo-8,9,10,22-tetraazahexacyclo[20.5.3.2^17,20.1^3,7.0^6,10.0^25,29]tritriaconta-1(27),3(33),4,6,8,13,17,19,25,28,31-undecaen-2-yl]acetic acid]
100 | Cc1c2ccc3c1nnn3CCCCCCc1ccc(cc1)C(=O)N1CCc3ccc(cc3C1)C2CC(=O)O (racemic) [Example 15, [33-Methyl-21-oxo-8,9,10,22-tetraazahexacyclo[20.5.3.2^17,20.1^3,7.0^6,10.0^25,29]tritriaconta-1(27),3(33),4,6,8,17,19,25,28,31-decaen-2-yl]acetic acid]
100 | Cc1cc2ccc1C(=O)N1CCc3ccc(cc3C1)C(CC(=O)O)c1ccc3c(nnn3CCCOC2)c1C (racemic) [Example 17, [18,32-Dimethyl-20-oxo-14-oxa-8,9,10,21-tetraazahexacyclo[19.5.3.2^16,19.1^3,7.0^6,10.0^24,28]dotriaconta-1(26),3(32),4,6,8,16,18,24,27,30-decaen-2-yl]acetic acid]
100 | CCc1cc2ccc1C(=O)N1CCc3ccc(cc3C1)C(CC(=O)O)c1ccc3c(nnn3CCCOC2)c1C (racemic) [Example 18, [18-Ethyl-32-methyl-20-oxo-14-oxa-8,9,10,21-tetraazahexacyclo[19.5.3.2^16,19.1^3,7.0^6,10.0^24,28]dotriaconta-1(26),3(32),4,6,8,16,18,24,27,30-decaen-2-yl]acetic acid]
100 | Cc1c2ccc3c1nnn3CCCOCc1ccc(c(C3CC3)c1)C(=O)N1CCc3ccc(cc3C1)C2CC(=O)O (racemic) [Example 19, [18-Cyclopropyl-32-methyl-20-oxo-14-oxa-8,9,10,21-tetraazahexacyclo[19.5.3.2^16,19.1^3,8.0^6,10.0^24,28]dotriaconta-1(26),3(32),4,6,8,16,18,24,27,30-decaen-2-yl]acetic acid]

Structure (SMILES) | inhibition at 0.1 µM [%]
Cc1c2ccc3c1nnn3CCCOCc1ccc(cc1)C(=O)N1CCc3ccc(cc3C1)C2CC(=O)O (racemic) [Example 16, [32-Methyl-20-oxo-14-oxa-8,9,10,21-tetraazahexacyclo[19.5.3.2^16,19.1^3,7.0^6,10.0^24,28]dotriaconta-1(26),3(32),4,6,8,16,18,24,27,30-decaen-2-yl]acetic acid] | 100
